Data published in patent publication US20210085640A1, “ACYLATED CATECHIN POLYPHENOLS AND METHODS OF THEIR USE FOR THE TREATMENT OF CANCER” (Flagship Pioneering Innovations V, Inc., priority 2018, published 2021).
pIC50: −log10 of the molar value.

Columns and labels:
Format in all cases: cell-based
[1] = system: AGS stomach cancer cells; test: Cancer cell survival (CellTiter-Glo), AGS; set-up: Cell survival at given concentration: unit not given here
Experimental: (§1) The cells were prepared as follows. Cells were harvested during logarithmic growth, counted, and adjusted to 4.44×10^4 cells/mL with culture media. 90 μL of suspended cells were added to wells of 96-well plates for a final cell count of 4×10^3 cells/well. The plates were incubated overnight at 37 C with 5% CO2 overnight.
(§2) The test compounds were assayed as follows. Compound solutions were mixed at 10× final concentrations in cell media: 1 μM-10 mM (fatty acids) or 100 nM-1 mM (all other compounds). […] of solution was added to each well of cells in triplicate for each concentration. Well plates were incubated for 72 h at 37 C with 5% CO2 and then assayed with CellTiter-Glo by adding 50 μL of CTG solution to each well. Cells were lysed by shaking on an orbital shaker for 5 min. Plates were incubated at room temperature for 20 min and then each well's luminescence was measured. The surviving percentage of cells was determined as:
(§3) Survival %=(LumTest article−LumMedium control)/(LumNone treated−LumMedium control)[…]
(§4) Cytotoxicity was assessed at nine concentration levels for each compound and the 50% inhibition concentration (IC50) determined for each compound.

[2] = system: Daudi lymphoma cancer cells; test: Cancer cell survival (CellTiter-Glo), Daudi; conditions: 72 h
Experimental: as §1, §2, §3
Activity was assessed at nine concentration levels for each compound and the 50% inhibition concentration (IC50) determined for each compound.

[3] = system: MCF7 breast cancer cells; test: Cancer cell survival (CellTiter-Glo), MCF7; conditions: 72 h
Experimental: as §1, §2, §3, §4

[4] = system: HCT 116 colorectal cancer cells; test: Cancer cell survival (CellTiter-Glo), HCT 116; conditions: HCT 116 cells, 72 h
Experimental: as §1, §2, §3, §4

[5] = system: A549 lung cancer cells; test: Cancer cell survival (CellTiter-Glo), A549; conditions: 72 h
Experimental: as §1, §2, §3, §4

[6] = system: A-431 skin cancer cells; test: Cancer cell survival (CellTiter-Glo), A-431; set-up: Cell survival at given concentration: unit not given here; conditions: A-431 cells, 72 h
Experimental: as §1, §2, §3, §4

[7] = system: PC-3 prostate cancer cells; test: Cancer cell survival (CellTiter-Glo), PC-3; conditions: PC-3 cells, 72 h
Experimental: as §1, §2, §3, §4

[8] = system: T24 bladder cancer cells; test: Cancer cell survival (CellTiter-Glo), T24; conditions: 72 h
Experimental: as §1, §2, §3
Efficacy was assessed at nine concentration levels for each compound and the 50% inhibition concentration (IC50) determined for each compound.

CC(O)CCO (stereo not shown) [butanediol]
0.98: Cell survival at given concentration ([1]; 10 mM) | Cell survival at given concentration ([2]; 1 μM, Table 4.2) | Cell survival at given concentration ([2]; 32 μM, Table 4.2) | Cell survival at given concentration ([3]; 10 μM, Table 5.2) | Cell survival at given concentration ([3]; 3 mM) | Cell survival at given concentration ([4]; 1 μM, Table 6.2) | Cell survival at given concentration ([4]; 10 μM, Table 6.2) | Cell survival at given concentration ([5]; 10 mM) | Cell survival at given concentration ([7]; 3 mM)
1.05: Cell survival at given concentration ([1]; 32 μM, Table 10.2)
0.96: Cell survival at given concentration ([3]; 10 mM) | Cell survival at given concentration ([4]; 3 μM, Table 6.2) | Cell survival at given concentration ([7]; 10 mM)
1.01: Cell survival at given concentration ([1]; 1 μM, Table 10.2) | Cell survival at given concentration ([2]; 317 μM) | Cell survival at given concentration ([3]; 317 μM) | Cell survival at given concentration ([4]; 1 mM) | Cell survival at given concentration ([5]; 32 μM, Table 7.2) | Cell survival at given concentration ([5]; 1 mM) | Cell survival at given concentration ([6]; 10 mM) | Cell survival at given concentration ([8]; 100 μM, Table 3.2)
0.99: Cell survival at given concentration ([3]; 3 μM, Table 5.2) | Cell survival at given concentration ([4]; 3 mM) | Cell survival at given concentration ([7]; 3 μM, Table 8.2) | Cell survival at given concentration ([8]; 10 μM, Table 3.2)
0.95: Cell survival at given concentration ([4]; 10 mM) | Cell survival at given concentration ([5]; 1 μM, Table 7.2)
1.06: Cell survival at given concentration ([1]; 1 mM)
1.03: Cell survival at given concentration ([1]; 10 μM, Table 10.2) | Cell survival at given concentration ([3]; 100 μM, Table 5.2) | Cell survival at given concentration ([5]; 10 μM, Table 7.2) | Cell survival at given concentration ([6]; 3 μM, Table 9.2) | Cell survival at given concentration ([6]; 100 μM, Table 9.2) | Cell survival at given concentration ([7]; 10 μM, Table 8.2) | Cell survival at given concentration ([8]; 3 μM, Table 3.2) | Cell survival at given concentration ([8]; 317 μM)
1.04: Cell survival at given concentration ([1]; 100 μM, Table 10.2) | Cell survival at given concentration ([6]; 10 μM, Table 9.2) | Cell survival at given concentration ([6]; 32 μM, Table 9.2) | Cell survival at given concentration ([6]; 317 μM)
1.02: Cell survival at given concentration ([1]; 3 μM, Table 10.2) | Cell survival at given concentration ([1]; 317 μM) | Cell survival at given concentration ([1]; 3 mM) | Cell survival at given concentration ([3]; 32 μM, Table 5.2) | Cell survival at given concentration ([4]; 317 μM) | Cell survival at given concentration ([5]; 317 μM) | Cell survival at given concentration ([6]; 1 μM, Table 9.2) | Cell survival at given concentration ([6]; 1 mM) | Cell survival at given concentration ([6]; 3 mM) | Cell survival at given concentration ([7]; 32 μM, Table 8.2) | Cell survival at given concentration ([7]; 317 μM) | Cell survival at given concentration ([8]; 1 μM, Table 3.2) | Cell survival at given concentration ([8]; 1 mM)
1.00: Cell survival at given concentration ([2]; 100 μM, Table 4.2) | Cell survival at given concentration ([2]; 1 mM) | Cell survival at given concentration ([2]; 3 mM) | Cell survival at given concentration ([2]; 10 mM) | Cell survival at given concentration ([3]; 1 μM, Table 5.2) | Cell survival at given concentration ([3]; 1 mM) | Cell survival at given concentration ([4]; 100 μM, Table 6.2) | Cell survival at given concentration ([5]; 100 μM, Table 7.2) | Cell survival at given concentration ([7]; 1 μM, Table 8.2) | Cell survival at given concentration ([7]; 100 μM, Table 8.2) | Cell survival at given concentration ([8]; 32 μM, Table 3.2) | Cell survival at given concentration ([8]; 3 mM) | Cell survival at given concentration ([8]; 10 mM)
0.97: Cell survival at given concentration ([2]; 3 μM, Table 4.2) | Cell survival at given concentration ([2]; 10 μM, Table 4.2) | Cell survival at given concentration ([4]; 32 μM, Table 6.2) | Cell survival at given concentration ([5]; 3 μM, Table 7.2) | Cell survival at given concentration ([5]; 3 mM) | Cell survival at given concentration ([7]; 1 mM)

CC(O)CC(=O)O (stereo not drawn) [beta-hydroxybutyrate]
1.03: Cell survival at given concentration ([1]; 3 μM, Table 10.2) | Cell survival at given concentration ([1]; 317 μM) | Cell survival at given concentration ([1]; 3 mM) | Cell survival at given concentration ([3]; 100 μM, Table 5.2) | Cell survival at given concentration ([4]; 317 μM) | Cell survival at given concentration ([6]; 10 μM, Table 9.2) | Cell survival at given concentration ([6]; 32 μM, Table 9.2) | Cell survival at given concentration ([6]; 100 μM, Table 9.2) | Cell survival at given concentration ([6]; 3 mM) | Cell survival at given concentration ([7]; 32 μM, Table 8.2) | Cell survival at given concentration ([7]; 100 μM, Table 8.2) | Cell survival at given concentration ([7]; 317 μM)
0.96: Cell survival at given concentration ([2]; 3 mM) | Cell survival at given concentration ([4]; 3 mM) | Cell survival at given concentration ([8]; 100 μM, Table 3.2)
0.90: Cell survival at given concentration ([4]; 10 mM)
1.02: Cell survival at given concentration ([1]; 32 μM, Table 10.2) | Cell survival at given concentration ([2]; 100 μM, Table 4.2) | Cell survival at given concentration ([5]; 32 μM, Table 7.2) | Cell survival at given concentration ([6]; 3 μM, Table 9.2) | Cell survival at given concentration ([8]; 317 μM)
0.91: Cell survival at given concentration ([2]; 10 mM) | Cell survival at given concentration ([3]; 10 mM)
0.98: Cell survival at given concentration ([2]; 10 μM, Table 4.2) | Cell survival at given concentration ([2]; 32 μM, Table 4.2) | Cell survival at given concentration ([4]; 1 μM, Table 6.2) | Cell survival at given concentration ([4]; 32 μM, Table 6.2) | Cell survival at given concentration ([5]; 10 mM) | Cell survival at given concentration ([8]; 10 μM, Table 3.2)
< 2.00: pIC50 ([5]; Table 7.2)
1.01: Cell survival at given concentration ([1]; 1 μM, Table 10.2) | Cell survival at given concentration ([1]; 10 μM, Table 10.2) | Cell survival at given concentration ([2]; 1 μM, Table 4.2) | Cell survival at given concentration ([3]; 32 μM, Table 5.2) | Cell survival at given concentration ([3]; 317 μM) | Cell survival at given concentration ([4]; 1 mM) | Cell survival at given concentration ([5]; 10 μM, Table 7.2) | Cell survival at given concentration ([5]; 317 μM) | Cell survival at given concentration ([5]; 1 mM) | Cell survival at given concentration ([5]; 3 mM) | Cell survival at given concentration ([6]; 1 μM, Table 9.2) | Cell survival at given concentration ([6]; 10 mM) | Cell survival at given concentration ([7]; 1 μM, Table 8.2) | Cell survival at given concentration ([7]; 10 μM, Table 8.2) | Cell survival at given concentration ([7]; 1 mM)
0.97: Cell survival at given concentration ([3]; 1 mM) | Cell survival at given concentration ([7]; 10 mM) | Cell survival at given concentration ([8]; 1 μM, Table 3.2)
1.00: Cell survival at given concentration ([1]; 10 mM) | Cell survival at given concentration ([3]; 1 μM, Table 5.2) | Cell survival at given concentration ([3]; 3 μM, Table 5.2) | Cell survival at given concentration ([3]; 10 μM, Table 5.2) | Cell survival at given concentration ([4]; 3 μM, Table 6.2) | Cell survival at given concentration ([4]; 100 μM, Table 6.2) | Cell survival at given concentration ([5]; 1 μM, Table 7.2) | Cell survival at given concentration ([7]; 3 μM, Table 8.2) | Cell survival at given concentration ([7]; 3 mM) | Cell survival at given concentration ([8]; 3 μM, Table 3.2) | Cell survival at given concentration ([8]; 10 mM)
1.05: Cell survival at given concentration ([5]; 100 μM, Table 7.2) | Cell survival at given concentration ([6]; 317 μM) | Cell survival at given concentration ([6]; 1 mM)
0.92: Cell survival at given concentration ([3]; 3 mM)
1.04: Cell survival at given concentration ([1]; 100 μM, Table 10.2) | Cell survival at given concentration ([1]; 1 mM)
0.95: Cell survival at given concentration ([8]; 32 μM, Table 3.2)
0.99: Cell survival at given concentration ([2]; 3 μM, Table 4.2) | Cell survival at given concentration ([2]; 317 μM) | Cell survival at given concentration ([2]; 1 mM) | Cell survival at given concentration ([4]; 10 μM, Table 6.2) | Cell survival at given concentration ([5]; 3 μM, Table 7.2) | Cell survival at given concentration ([8]; 1 mM) | Cell survival at given concentration ([8]; 3 mM)
